The record followed here is patent US11891377B1, “Pyrrolo[3,2-c][2,7]naphthyridine-2-carboxylic acid compounds as CK2 inhibitors” (KING FAISAL UNIVERSITY, priority 2023, dated 2024).

One test concerns MDA-MB-231 (breast). Put plainly: In vitro cytotoxic activity (MTT) assay, MDA-MB-231. Particulars: Homo sapiens; MDA-MB-231 cells, exposed for 96 hours; read-out: IC50, 50% inhibition of cell proliferation, MDA-MB-231 (breast). It is filed as cell-based. As for the experimental part:
(§1) Compounds 1-16 were screened for their in vitro cytotoxic activity utilizing a 3-(4,5-dimethyl-thiazol-2-yl)-2,5-diphenyltetrazolium bromide (MTT) assay against selected cancer human cell lines consisting of PC3 (prostate), HCT116 (colon), A375 (melanoma), H1299 (lung), MIAPaCa-2 (pancreas), HL60 (leukemia), MCF7 (breast), MDA-MB-231 (breast) (T. Mosmann, J. Immunol. Meth., 1983, 65, 55-63). The cells were cultured at 37° C. in RMPI1640 medium supplemented with 10% fetal bovine serum, 50 IU/mL penicillin, and 50 μg/mL streptomycin in a 5% CO2 incubator. All cells were sub-cultured 3 times/week by trypsinisation. Viable cells were seeded and allowed to adhere for 12 h before a test drug was added in 96-well plates at an initial density of 1.0×10^5 cells/mL. Tumour cell lines were separately exposed to various concentrations of the tested compounds followed by incubation at a temperature of 37° C. during 96 h inside a medium of fresh RMPI 1640. Cells were subsequently incubated at 37° C. using MTT at 0.5 mg/mL during 4 h. After removal of supernatant, formazan crystals were dissolved in isopropanol and the optical density was measured at 570 nm. CX-4945 was used as a positive control.

In the next test the test system is MIAPaCa-2 (pancreas). Put plainly: In vitro cytotoxic activity (MTT) assay, MIAPaCa-2. It is filed as cell-based. Particulars: Homo sapiens, MIA PaCa-2; MIAPaCa-2 cells, exposed for 96 hours; read-out: IC50, 50% inhibition of cell proliferation, MIAPaCa-2 (pancreas). As for the experimental part: as §1
For the next test, the system named is H1299 (lung). Put plainly: In vitro cytotoxic activity (MTT) assay, H1299. It counts as cell-based. Conditions: Homo sapiens, NCI-H1299; H1299 cells, exposed for 96 hours; read-out: IC50, 50% inhibition of cell proliferation, H1299 (lung). As for the experimental part:
as §1

The next test concerns HL60 (leukemia). Put plainly: In vitro cytotoxic activity (MTT) assay, HL60. It counts as cell-based. Conditions: Homo sapiens, HL-60; HL60 cells, exposed for 96 hours; read-out: IC50, 50% inhibition of cell proliferation, HL60 (leukemia). As for the experimental part: as §1
For another test, the system named is PC3 (prostate). The experiment in a line: In vitro cytotoxic activity (MTT) assay, PC3. It counts as cell-based. Particulars: Homo sapiens, PC-3; PC3 cells, exposed for 96 hours; read-out: IC50, 50% inhibition of cell proliferation, PC3 (prostate). As for the experimental part: as §1
Test [1] concerns the target T1, recombinant human CK2 (RRββ-holoenzyme) (Homo sapiens, UniProt P68400).
T1 construct: purchased Millipore
The experiment in a line: CK2 Kinase Assay (radiometric, [γ-33P]ATP). It is filed as biochemical. Conditions: final ATP concentration 15 μM, 10 min at 30° C.; read-out: protein kinase CK2 IC50. The method, then: CK2 Kinase Assay was conducted using the protocol as described in Pierre F. et al; J. Med. Chem. 2011, 54, 635-654. The tested compounds in aqueous solution were added at a volume of 10 μL to a reaction mixture comprising 10 μL of assay dilution buffer (ADB; 20 mM MOPS, pH 7.2, 25 mM β-glycerol phosphate, 5 mM EGTA, 1 mM sodium orthovanadate, and 1 mM dithiothreitol), 10 μL of substrate peptide (RRRDDDSDDD, dissolved in ADB at a concentration of 1 mM), 10 μL of recombinant human CK2 (RRββ-holoenzyme, 25 ng dissolved in ADB; Millipore). Reactions were initiated by the addition of 10 μL of ATP solution (90% 75 mMMgCl2, 75 μM ATP (final ATP concentration: 15 μM) dissolved in ADB; 10% [γ-33P] ATP (stock 1 mCi/100 μL; 3000 Ci/mmol (Perkin-Elmer) and maintained for 10 min at 30° C. The reactions were quenched with 100 μL of 0.75% phosphoric acid and then transferred to and filtered through a phosphor cellulose filter plate (Millipore). After washing each well five times with 0.75% phosphoric acid, the plate was dried under vacuum for 5 min and, following the addition of 15 μL of scintillation fluid to each well, the residual radioactivity was measured using a Wallac luminescence counter. The ICso values were derived from eight concentrations of test inhibitors.

A further test has as its system HCT116 (colon). Put plainly: In vitro cytotoxic activity (MTT) assay, HCT116. It counts as cell-based. Particulars: Homo sapiens, HCT-116; HCT116 cells, exposed for 96 hours; read-out: IC50, 50% inhibition of cell proliferation, HCT116 (colon). The method, then:
as §1

In another test the test system is MCF7 (breast). Put plainly: In vitro cytotoxic activity (MTT) assay, MCF7. It counts as cell-based. Conditions: Homo sapiens; MCF7 cells, exposed for 96 hours; read-out: IC50, 50% inhibition of cell proliferation, MCF7 (breast). The method, then: as §1
The subject of another test is A375 (melanoma). Put plainly: In vitro cytotoxic activity (MTT) assay, A375. Particulars: Homo sapiens, A-375; A375 cells, exposed for 96 hours; read-out: IC50, 50% inhibition of cell proliferation, A375 (melanoma). It counts as cell-based. As for the experimental part: as §1

T1 sequence (P68400 whole entry): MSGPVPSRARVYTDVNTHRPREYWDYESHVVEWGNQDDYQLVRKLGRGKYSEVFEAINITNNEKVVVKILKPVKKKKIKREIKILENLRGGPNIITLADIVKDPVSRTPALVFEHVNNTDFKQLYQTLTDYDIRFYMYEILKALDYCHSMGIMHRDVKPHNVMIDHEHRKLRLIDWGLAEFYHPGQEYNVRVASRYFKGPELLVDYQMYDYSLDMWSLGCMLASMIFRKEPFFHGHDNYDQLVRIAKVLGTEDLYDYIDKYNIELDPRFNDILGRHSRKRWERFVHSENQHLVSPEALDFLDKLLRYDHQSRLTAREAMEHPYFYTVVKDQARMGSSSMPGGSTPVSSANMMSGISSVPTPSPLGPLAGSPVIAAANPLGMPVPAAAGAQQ
T1 sequence (P67870 whole entry partner): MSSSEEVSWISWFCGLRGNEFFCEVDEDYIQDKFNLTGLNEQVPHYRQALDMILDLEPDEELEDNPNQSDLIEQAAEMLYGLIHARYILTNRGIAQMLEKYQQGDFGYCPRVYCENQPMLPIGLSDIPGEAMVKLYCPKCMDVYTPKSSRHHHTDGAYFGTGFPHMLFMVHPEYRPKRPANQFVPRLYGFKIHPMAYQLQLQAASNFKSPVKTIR

For the compound `O=C(O)c1cc2nc(Nc3cccc(Cl)c3)c3cnccc3c2[nH]1` [Compound 1, 5-((3-chlorophenyl)amino)-1H-pyrrolo[3,2-c][2,7]naphthyridine-2-carboxylic Acid], the IC50 was 3.3 µM in the test on MDA-MB-231 (breast); 1100 nM in the test on MIAPaCa-2 (pancreas); 1200 nM in the test on H1299 (lung); 2600 nM in the test on HL60 (leukemia); 2100 nM with PC3 (prostate); 35 nM in test [1]. Besides, the IC50 in the test on HCT116 (colon) worked out at 1300 nM; in the test on MCF7 (breast) it was 3.9 µM; in the test with A375 (melanoma), 2500 nM.
